The IC50 is the point on the concentration scale where inhibition reaches its midpoint. Usually Ki stands for the equilibrium dissociation constant of an inhibitor or competing ligand from its target.

The target of one assay is T1, Adenosine receptor A3 (Homo sapiens, UniProt P0DMS8).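 Note: radioligand binding assay with AB-MECA serving as the labeled ligand; in other assays of this panel Not Active means under 50% inhibition at 10 µM.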
T1 sequence (P0DMS8 whole entry): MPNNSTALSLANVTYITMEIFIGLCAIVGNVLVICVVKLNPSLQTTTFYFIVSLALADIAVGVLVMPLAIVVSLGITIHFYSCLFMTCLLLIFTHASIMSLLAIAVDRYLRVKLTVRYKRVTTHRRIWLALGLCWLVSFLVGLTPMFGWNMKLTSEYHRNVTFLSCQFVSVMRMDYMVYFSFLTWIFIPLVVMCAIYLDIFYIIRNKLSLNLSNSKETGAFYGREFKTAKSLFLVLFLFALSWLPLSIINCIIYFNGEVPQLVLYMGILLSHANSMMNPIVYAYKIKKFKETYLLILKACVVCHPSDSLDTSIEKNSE
The format is cell membranes, CHO-K1, Membrane.

The nature of assay [1]: DRUGMATRIX: Glutamate, AMPA radioligand binding (ligand: [3H] AMPA). The format is cell membranes, Rattus norvegicus, Wistar, Cerebral cortex, Membrane. Conditions: Not Active = under 50% inhibition at 10 µM.
Assay [2] deals with Mitogen-activated protein kinase 14 (Homo sapiens, UniProt Q16539). On the set-up: species or system Escherichia coli.
For the next assay, the target named is Cannabinoid receptor 1 (Homo sapiens, UniProt P21554). The format is cell membranes, Membrane. The conditions noted are these: chem-1. Note: in other assays of this panel Not Active means under 50% inhibition at 10 µM.
The nature of assay [3]: DRUGMATRIX: Calcium Channel Type L, Phenylalkylamine radioligand binding (ligand: [3H] (-)-Desmethoxyverapamil (D-888)). The format is cell membranes, Rattus norvegicus, Wistar, Brain, Membrane. The conditions noted are these: Not Active = under 50% inhibition at 10 µM.
Assay [4] can be described thus: DRUGMATRIX: Calcium Channel Type L, Benzothiazepine radioligand binding (ligand: [3H] Diltiazem). The format is cell membranes, Rattus norvegicus, Wistar, Brain, Membrane. Conditions: Not Active = under 50% inhibition at 10 µM.

Chain of Mitogen-activated protein kinase 14 (Q16539 whole entry): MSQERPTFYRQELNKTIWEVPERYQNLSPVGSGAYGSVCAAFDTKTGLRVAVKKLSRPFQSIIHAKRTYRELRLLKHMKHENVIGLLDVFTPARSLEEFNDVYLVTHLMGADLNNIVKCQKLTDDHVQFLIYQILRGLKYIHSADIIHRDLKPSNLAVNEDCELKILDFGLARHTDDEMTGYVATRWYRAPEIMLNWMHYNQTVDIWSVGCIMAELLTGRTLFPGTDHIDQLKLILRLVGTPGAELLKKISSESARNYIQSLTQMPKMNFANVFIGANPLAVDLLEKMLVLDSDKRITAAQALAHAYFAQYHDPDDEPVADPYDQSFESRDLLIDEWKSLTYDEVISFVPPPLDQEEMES
Chain of Cannabinoid receptor 1 (P21554 whole entry): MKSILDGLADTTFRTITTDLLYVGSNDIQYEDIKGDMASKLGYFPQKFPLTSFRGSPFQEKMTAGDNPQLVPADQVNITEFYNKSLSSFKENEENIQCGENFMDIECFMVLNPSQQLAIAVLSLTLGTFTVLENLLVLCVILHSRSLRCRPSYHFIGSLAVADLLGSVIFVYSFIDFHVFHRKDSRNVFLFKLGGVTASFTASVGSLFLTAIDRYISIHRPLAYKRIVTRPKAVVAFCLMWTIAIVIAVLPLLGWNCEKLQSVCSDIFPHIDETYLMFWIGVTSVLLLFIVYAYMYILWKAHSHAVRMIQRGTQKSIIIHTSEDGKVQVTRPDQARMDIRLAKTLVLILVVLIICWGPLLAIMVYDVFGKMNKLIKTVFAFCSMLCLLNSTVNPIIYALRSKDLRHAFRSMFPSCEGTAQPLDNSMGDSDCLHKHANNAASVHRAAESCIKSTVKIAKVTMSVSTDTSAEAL

As for `O=C(/C=C/c1ccc(O)c(O)c1)OCCc1ccccc1` [CAFFEIC ACID PHENETHYL ESTER], the half-inhibitory concentration (IC50) entry (on Adenosine receptor A3 (cho-k1); in assay [1]; in assay [2]; against Cannabinoid receptor 1; in assay [3]; in assay [4]) was “Not Active” each time. The Ki entry in assay [1], in assay [3] and in assay [4] was “Not Active” throughout.

As to `COc1cc(CNC(=O)CCCC/C=C/C(C)C)ccc1O` [CAPSAICIN], the IC50 entry (against Adenosine receptor A3 (cho-k1); in assay [1]; in assay [2]; against Cannabinoid receptor 1; in assay [3]; in assay [4]) was “Not Active” in each case. In addition, the Ki entry in assay [1], in assay [3] and in assay [4] was “Not Active” each time.

Take `NC(=O)N1c2ccccc2C=Cc2ccccc21` [CARBAMAZEPINE]: the IC50 entry (at Adenosine receptor A3 (cho-k1); in assay [1]; in assay [2]; against Cannabinoid receptor 1; in assay [3]; in assay [4]) was “Not Active” throughout. The Ki entry in assay [1], in assay [3] and in assay [4] was “Not Active” each time.

On to `CCOC(=O)n1ccn(C)c1=S` [CARBIMAZOLE], for which the IC50 entry (against Adenosine receptor A3 (cho-k1); in assay [1]; in assay [2]; at Cannabinoid receptor 1; in assay [3]; in assay [4]) was “Not Active” in each case. For the same compound, the Ki result in assay [1], in assay [3] and in assay [4] was “Not Active” in each case.

For `Oc1ccccc1O` [CATECHOL], the IC50 result (against Adenosine receptor A3 (cho-k1); in assay [1]; in assay [2]; at Cannabinoid receptor 1; in assay [3]; in assay [4]) was “Not Active” in each case. Besides, the Ki result in assay [1], in assay [3] and in assay [4] was “Not Active” in each case.

As to `CO[C@@]1(NC(=O)CSCC#N)C(=O)N2C(C(=O)O)=C(CSc3nnnn3C)CS[C@@H]21` [CEFMETAZOLE], the IC50 entry (at Adenosine receptor A3 (cho-k1); in assay [1]; in assay [2]; against Cannabinoid receptor 1; in assay [3]; in assay [4]) was “Not Active” in each case. Besides, the Ki result in assay [1], in assay [3] and in assay [4] was “Not Active” throughout.

Regarding `CN(C(=O)CCCOc1ccc2[nH]c(=O)ccc2c1)C1CCCCC1` [CILOSTAMIDE], the IC50 entry (against Adenosine receptor A3 (cho-k1); in assay [1]; in assay [2]; against Cannabinoid receptor 1; in assay [3]; in assay [4]) was “Not Active” each time. Also, the Ki result in assay [1], in assay [3] and in assay [4] was “Not Active” throughout.

In the case of `CC(C)(Oc1ccc(C2CC2(Cl)Cl)cc1)C(=O)O` (stereo not given) [CIPROFIBRATE], the IC50 entry (against Adenosine receptor A3 (cho-k1); in assay [1]; in assay [2]; on Cannabinoid receptor 1; in assay [3]; in assay [4]) was “Not Active” in each case. In addition, the Ki entry in assay [1], in assay [3] and in assay [4] was “Not Active” throughout.

For the compound `Nc1nc(Cl)nc2c1ncn2[C@H]1C[C@H](O)[C@@H](CO)O1` [CLADRIBINE], the IC50 entry (at Adenosine receptor A3 (cho-k1); in assay [1]; in assay [2]; against Cannabinoid receptor 1; in assay [3]; in assay [4]) was “Not Active” in each case. Also, the Ki entry in assay [1], in assay [3] and in assay [4] was “Not Active” in each case.

`CC[C@H]1OC(=O)[C@H](C)[C@@H](O[C@H]2C[C@@](C)(OC)[C@@H](O)[C@H](C)O2)[C@H](C)[C@@H](O[C@@H]2O[C@H](C)C[C@H](N(C)C)[C@H]2O)[C@](C)(OC)C[C@@H](C)C(=O)[C@H](C)[C@@H](O)[C@]1(C)O` [CLARITHROMYCIN]: the IC50 result (against Adenosine receptor A3 (cho-k1); in assay [1]; in assay [2]; against Cannabinoid receptor 1; in assay [3]; in assay [4]) was “Not Active” throughout. Moreover, the Ki result in assay [1], in assay [3] and in assay [4] was “Not Active” throughout.

On to `CCC[C@@H]1C[C@@H](C(=O)N[C@@H]([C@H]2O[C@H](SC)[C@H](O)[C@@H](O)[C@H]2O)[C@H](C)Cl)N(C)C1` [CLINDAMYCIN], for which the IC50 entry (against Adenosine receptor A3 (cho-k1); in assay [1]; in assay [2]; at Cannabinoid receptor 1; in assay [3]; in assay [4]) was “Not Active” in each case. In addition, the Ki result in assay [1], in assay [3] and in assay [4] was “Not Active” throughout.

As for `O=C(O)c1cc(=O)c2c(OCC(O)COc3cccc4oc(C(=O)O)cc(=O)c34)cccc2o1` [CROMOLYN], the IC50 entry (on Adenosine receptor A3 (cho-k1); in assay [1]; in assay [2]; against Cannabinoid receptor 1; in assay [3]; in assay [4]) was “Not Active” each time. In addition, the inhibition constant Ki entry in assay [1], in assay [3] and in assay [4] was “Not Active” throughout.

As to `O=P1(N(CCCl)CCCl)NCCCO1` (stereo not given) [CYCLOPHOSPHAMIDE ANHYDROUS], the IC50 entry (at Adenosine receptor A3 (cho-k1); in assay [1]; in assay [2]; against Cannabinoid receptor 1; in assay [3]; in assay [4]) was “Not Active” each time. In addition, the Ki entry in assay [1], in assay [3] and in assay [4] was “Not Active” throughout.

Turning to `CC(=O)O[C@]1(C(C)=O)CC[C@H]2[C@@H]3C=C(Cl)C4=CC(=O)[C@@H]5C[C@@H]5[C@]4(C)[C@H]3CC[C@@]21C` [CYPROTERONE ACETATE], the IC50 result (against Adenosine receptor A3 (cho-k1); in assay [1]; in assay [2]; on Cannabinoid receptor 1; in assay [3]; in assay [4]) was “Not Active” each time. The Ki result in assay [1], in assay [3] and in assay [4] was “Not Active” in each case.

Turning to `Nc1nc(N)nc(NC2CC2)n1` [CYROMAZINE], the IC50 entry (at Adenosine receptor A3 (cho-k1); in assay [1]; in assay [2]; on Cannabinoid receptor 1; in assay [3]; in assay [4]) was “Not Active” throughout. Moreover, the Ki entry in assay [1], in assay [3] and in assay [4] was “Not Active” throughout.

Take `C#C[C@]1(O)CC[C@H]2[C@@H]3CCC4=Cc5oncc5C[C@]4(C)[C@H]3CC[C@@]21C` [DANAZOL]: the IC50 at Adenosine receptor A3 (read-out: IC50) is 11.2 µM; in assay [1], “Not Active”; in assay [2] it was “Not Active”; on Cannabinoid receptor 1, “Not Active”; in assay [3] (read-out: IC50), 14.6 µM; in assay [4] (read-out: IC50) it was 14.6 µM. The Ki at Adenosine receptor A3 (read-out: Ki) was 6.31 µM; in assay [1], “Not Active”; in assay [3] (read-out: Ki), 14.2 µM; in assay [4] (read-out: Ki), 13 µM.

For `CCN[C@@H](C)Cc1cccc(C(F)(F)F)c1` [DEXFENFLURAMINE], the IC50 entry (at Adenosine receptor A3 (cho-k1); in assay [1]; in assay [2]; against Cannabinoid receptor 1; in assay [3]; in assay [4]) was “Not Active” throughout. The Ki result in assay [1], in assay [3] and in assay [4] was “Not Active” in each case.

For the compound `C[C@H](C(=O)O)c1cccc(C(=O)c2ccccc2)c1` [DEXKETOPROFEN], the IC50 result (against Adenosine receptor A3 (cho-k1); in assay [1]; in assay [2]; against Cannabinoid receptor 1; in assay [3]; in assay [4]) was “Not Active” throughout. Besides, the Ki entry in assay [1], in assay [3] and in assay [4] was “Not Active” each time.

For `CN1C(=O)CN=C(c2ccccc2)c2cc(Cl)ccc21` [DIAZEPAM], the IC50 entry (on Adenosine receptor A3 (cho-k1); in assay [1]; in assay [2]; against Cannabinoid receptor 1; in assay [3]; in assay [4]) was “Not Active” each time. The Ki result in assay [1], in assay [3] and in assay [4] was “Not Active” throughout.

Take `Cc1c(N(C)CS(=O)(=O)[O-])c(=O)n(-c2ccccc2)n1C.[Na+]` [DIPYRONE SODIUM]: the half-inhibitory concentration (IC50) entry (at Adenosine receptor A3 (cho-k1); in assay [1]; in assay [2]; against Cannabinoid receptor 1; in assay [3]; in assay [4]) was “Not Active” throughout. For the same compound, the Ki result in assay [1], in assay [3] and in assay [4] was “Not Active” throughout.

For the compound `CC(CCc1ccc(O)cc1)NCCc1ccc(O)c(O)c1` (stereo not given) [DOBUTAMINE], the IC50 entry (at Adenosine receptor A3 (cho-k1); in assay [1]; in assay [2]; on Cannabinoid receptor 1; in assay [3]; in assay [4]) was “Not Active” throughout. The Ki entry in assay [1], in assay [3] and in assay [4] was “Not Active” in each case.
